Converted amounts (≈) assume the structure as drawn.
Legend:
[1] = Neuroprotective activity against H2O2-induced cytotoxicity in rat PC12 cells assessed as cell viability at 25 uM by MTT assay; assay type: functional; conditions: PC-12, read-out: INH
[2] = Antithrombotic activity in New Zealand white rabbit platelet poor plasma assessed as fibrinogen at 100 uM incubated for 3 mins by coagulometer based assay; assay type: functional, Oryctolagus cuniculus
[3] = Antithrombotic activity in New Zealand white rabbit platelet poor plasma assessed as prolongation of thrombin time at 100 uM incubated for 3 mins by coagulometer based assay; assay type: functional, Oryctolagus cuniculus
[4] = Neuroprotective activity against H2O2-induced cytotoxicity in rat PC12 cells assessed as cell viability at 50 uM by MTT assay; assay type: functional; conditions: PC-12, read-out: INH
[5] = Antioxidant activity assessed as DPPH radical scavenging by spectrophotometric analysis; assay type: physicochemical
[6] = Solubility of compound in water at 0.1 to 10 ug/ml by UV spectrophotometry; assay type: physicochemical
[7] = Antithrombotic activity in New Zealand white rabbit platelet poor plasma assessed as increase in prothrombin time at 100 uM incubated for 3 mins by coagulometer based assay; assay type: functional, Oryctolagus cuniculus
[8] = Antithrombotic activity in New Zealand white rabbit platelet poor plasma assessed as increase in activated partial thromboplastin time at 100 uM incubated for 3 mins by coagulometer based assay; assay type: functional, Oryctolagus cuniculus
[9] = Solubility of compound in water at 0.1 to 10 ug/ml by UV spectrophotometry relative to scutellarein; assay type: physicochemical; conditions: buffer

| Compound | neuroprotection (% cell viability vs H2O2 cytotoxicity) at 25 µM [1] | Activity [2] | TT [3] | cell viability at 50 µM [4] | IC50 [5] | solubility [6] | PT [7] | APTT [8] | fold change (FC) [9] |
| --- | --- | --- | --- | --- | --- | --- | --- | --- | --- |
| CN(C)C(=O)Oc1ccc(-c2cc(=O)c3c(O)c(O)c(O)cc3o2)cc1 | 48.7% | 5.56 g/L | 24.3 s | 71.2% | 37.2 µM | 9.56 µg/mL (≈ 26.8 µM) | 8.1 s | 27.78 s | 1.4 |
| O=C(Oc1ccc(-c2cc(=O)c3c(O)c(O)c(O)cc3o2)cc1)N1CCOCC1 | 73.9% | 5.52 g/L | 24.62 s | 94.2% | 19.3 µM | 15.3 µg/mL (≈ 38.4 µM) | 8.55 s | 28.28 s | 2.34 |
| CCN(CC)C(=O)Oc1ccc(-c2cc(=O)c3c(O)c(O)c(O)cc3o2)cc1 | 51.3% | 5.21 g/L | 24.36 s | 75.2% | 32.6 µM | 9.23 µg/mL (≈ 24 µM) | 7.67 s | 28.2 s | 1.35 |
| CC(C)N(C(=O)Oc1ccc(-c2cc(=O)c3c(O)c(O)c(O)cc3o2)cc1)C(C)C | 71.7% | 5.65 g/L | 24.57 s | 93.4% | 17 µM | 8.67 µg/mL (≈ 21 µM) | 7.97 s | 27.97 s | 1.27 |
| CN1CCN(C(=O)Oc2ccc(-c3cc(=O)c4c(O)c(O)c(O)cc4o3)cc2)CC1 | 68.6% | 5.42 g/L | 24.52 s | 92.5% | 18.9 µM | 15.1 µg/mL (≈ 36.5 µM) | 7.03 s | 26.87 s | 2.2 |
| CN(C)C(=O)COc1ccc(-c2cc(=O)c3c(O)c(O)c(O)cc3o2)cc1 | 46.5% | 5.14 g/L | 22.27 s | 68.1% | 80.7 µM | 9.32 µg/mL (≈ 25.1 µM) | 7.17 s | 29.25 s | 1.36 |
| O=C(COc1ccc(-c2cc(=O)c3c(O)c(O)c(O)cc3o2)cc1)N1CCOCC1 | 43.4% | 5.49 g/L | 19.9 s | 64.6% | 83.3 µM | 9.45 µg/mL (≈ 22.9 µM) | 7.33 s | 27.1 s | 1.38 |
| CCN(CC)C(=O)COc1ccc(-c2cc(=O)c3c(O)c(O)c(O)cc3o2)cc1 | 44.7% | 5.37 g/L | 20.92 s | 66.4% | 81.3 µM | 8.95 µg/mL (≈ 22.4 µM) | 7.45 s | 26.4 s | 1.31 |
| CN(C)CCOc1ccc(-c2cc(=O)c3c(O)c(O)c(O)cc3o2)cc1 | 35.8% | 5.11 g/L | 22.97 s | 56.2% | 215 µM | 9.28 µg/mL (≈ 26 µM) | 6.82 s | 29.97 s | 1.35 |
| O=c1cc(-c2ccc(OCCN3CCOCC3)cc2)oc2cc(O)c(O)c(O)c12 | 32.3% | 5.23 g/L | 19.7 s | 48.2% | 264 µM | 9.4 µg/mL (≈ 23.5 µM) | 6.7 s | 29.05 s | 1.37 |
| CCN(CC)CCOc1ccc(-c2cc(=O)c3c(O)c(O)c(O)cc3o2)cc1 | 38.5% | 5.72 g/L | 22.03 s | 58.4% | 205 µM | 8.68 µg/mL (≈ 22.5 µM) | 6.9 s | 30.45 s | 1.27 |
| CN(C)CCCOc1ccc(-c2cc(=O)c3c(O)c(O)c(O)cc3o2)cc1 | 33.6% | 5.28 g/L | 19.9 s | 52.2% | 231 µM | 8.5 µg/mL (≈ 22.9 µM) | 6.15 s | 26.58 s | 1.24 |
| O=c1cc(-c2ccc(OCCCN3CCOCC3)cc2)oc2cc(O)c(O)c(O)c12 | 28.3% | 5.42 g/L | 19.6 s | 44.2% | 274 µM | 8.56 µg/mL (≈ 20.7 µM) | 6.63 s | 28.25 s | 1.25 |
| O=c1cc(-c2ccc(O)cc2)oc2cc(O)c(O)c(O)c12 [SCUTELLAREIN] | 64.6% | 6.84 g/L | 24.4 s | 91.2% | 22.6 µM | – | 5.93 s | 36.65 s | 1 |
| O=C(O)[C@H]1O[C@@H](Oc2cc3oc(-c4ccc(O)cc4)cc(=O)c3c(O)c2O)[C@H](O)[C@@H](O)[C@@H]1O [SCUTELLARIN] | 53.1% | 6.13 g/L | 23.08 s | 79.2% | 27.9 µM | – | 6.28 s | 34.18 s | – |

— ChEMBL document CHEMBL3632594, “Synthesis of scutellarein derivatives to increase biological activity and water solubility” (Bioorg Med Chem, 2015)
